Data on six molecules can be found in ChEMBL document CHEMBL5528034, “Fragment-to-Lead Medicinal Chemistry Publications in 2022” (J Med Chem, 2024).

Test [1] deals with Transcriptional enhancer factor TEF-1 (Homo sapiens, UniProt P28347).
Description: Binding affinity to human recombinant N-terminal His-tagged TEAD1 (residues 209 to 424) expressed in Escherichia coli BL21 (DE3) assessed as dissociation constant
Test [2] concerns the target Replicase polyprotein 1ab (Severe acute respiratory syndrome coronavirus 2, UniProt P0DTD1).
Description: Binding affinity to SARS-CoV-2 Main protease assessed as dissociation constant by SPR analysis
The next test has as its target Interleukin-1 beta (Homo sapiens, UniProt P01584). Nature of the test: Binding affinity to Interleukin-1beta (unknown origin) assessed as dissociation constant.
The next test has as its target T1, Pantothenate synthetase (Mycobacterium tuberculosis, UniProt P9WIL5).
T1 sequence (P9WIL5 whole entry): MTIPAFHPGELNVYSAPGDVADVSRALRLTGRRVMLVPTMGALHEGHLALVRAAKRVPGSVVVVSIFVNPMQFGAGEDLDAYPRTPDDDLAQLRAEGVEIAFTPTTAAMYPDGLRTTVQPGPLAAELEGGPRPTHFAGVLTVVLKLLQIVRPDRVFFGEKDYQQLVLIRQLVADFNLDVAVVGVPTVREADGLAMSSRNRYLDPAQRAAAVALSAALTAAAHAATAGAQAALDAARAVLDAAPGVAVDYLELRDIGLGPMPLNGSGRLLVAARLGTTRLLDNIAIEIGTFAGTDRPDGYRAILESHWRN
As to the kind of experiment: Inhibition of Mycobacterium tuberculosis H37Ra pantothenate synthetase.

Test [3] deals with Transcriptional enhancer factor TEF-4 (Homo sapiens, UniProt Q15562).
Transcriptional enhancer factor TEF-4, sequence (Q15562 whole entry): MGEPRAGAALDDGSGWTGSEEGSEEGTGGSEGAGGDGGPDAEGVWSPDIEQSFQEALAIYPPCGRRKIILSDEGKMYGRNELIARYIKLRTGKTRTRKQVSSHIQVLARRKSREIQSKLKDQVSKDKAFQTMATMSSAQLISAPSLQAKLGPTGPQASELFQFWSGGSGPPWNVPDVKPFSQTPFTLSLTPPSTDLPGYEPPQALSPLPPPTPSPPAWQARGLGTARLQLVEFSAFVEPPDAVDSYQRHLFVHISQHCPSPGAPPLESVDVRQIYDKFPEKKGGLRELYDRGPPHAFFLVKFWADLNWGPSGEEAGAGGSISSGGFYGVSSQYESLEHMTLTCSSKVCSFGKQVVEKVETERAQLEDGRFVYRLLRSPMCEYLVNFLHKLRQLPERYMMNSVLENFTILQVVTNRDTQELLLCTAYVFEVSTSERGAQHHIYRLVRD
Description: Binding affinity to human recombinant N-terminal His-tagged TEAD2 (residues 209 to 424) expressed in Escherichia coli BL21 (DE3) assessed as dissociation constant

Transcriptional enhancer factor TEF-1, sequence (P28347 whole entry): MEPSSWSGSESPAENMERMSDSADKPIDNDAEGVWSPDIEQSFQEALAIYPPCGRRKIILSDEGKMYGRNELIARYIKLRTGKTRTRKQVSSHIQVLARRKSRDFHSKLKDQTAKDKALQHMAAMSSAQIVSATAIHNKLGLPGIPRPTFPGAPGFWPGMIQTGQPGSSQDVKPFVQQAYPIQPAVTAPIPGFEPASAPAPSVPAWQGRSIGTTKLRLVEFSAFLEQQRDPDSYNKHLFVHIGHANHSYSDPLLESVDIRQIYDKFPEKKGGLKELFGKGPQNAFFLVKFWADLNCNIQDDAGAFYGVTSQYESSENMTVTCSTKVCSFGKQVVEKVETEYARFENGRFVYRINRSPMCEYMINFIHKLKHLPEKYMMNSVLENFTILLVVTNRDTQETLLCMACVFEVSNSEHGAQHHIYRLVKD
Interleukin-1 beta, sequence (P01584 117-269 limits assumed): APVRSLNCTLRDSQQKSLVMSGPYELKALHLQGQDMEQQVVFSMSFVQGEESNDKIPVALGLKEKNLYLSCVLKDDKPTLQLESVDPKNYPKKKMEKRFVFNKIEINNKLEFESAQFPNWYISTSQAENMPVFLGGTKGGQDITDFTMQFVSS

As to `C=C(F)C(=O)N1C[C@@H](n2cc(-c3cccnc3)nn2)[C@H](OCc2ccc(C(F)(F)F)cc2)C1`, the Kd in test [1] came to 170 nM.

For `O=C1N[C@@H](Cc2ccccc2)C(=O)N1c1cncc(F)c1`, binding in test [2] was characterised by a dissociation constant (Kd) of 23000 nM.

For `O=C(O)c1cc(NCc2ccccc2OCCOCCOCCOc2ccccc2CNc2cc(C(=O)O)cc(-c3ccnc4ccccc34)c2)cc(-c2ccnc3ccccc23)c1`, at Interleukin-1 beta, the Kd stood at 40 nM.

Consider `N#Cc1c(N)ncnc1-c1cnn(Cc2ccc(F)c(F)c2)c1`, for which the IC50 against Pantothenate synthetase amounted to 150 nM.

Consider `N#Cc1cncnc1N`, for which the IC50 against Pantothenate synthetase was 340 nM.

Take `O=C(O)c1ccccc1Nc1cccc(C(F)(F)F)c1` [FLUFENAMIC ACID]: the Kd in test [3] amounted to 73000 nM.
